The assay deals with Human LDHA (Homo sapiens (Human), UniProt P00338). As to the kind of experiment: human LDHA primary biochemical assay. The note with it: biochemical LDHA inhibitory activity, assay of Example 1; activity level classes defined in nM. From the text: This example describes a human LDHA primary biochemical assay employed in the characterization of a compound of formula (I) in an embodiment of the invention.
Test compounds were placed in a Greiner Bio-One (Monroe, N.C.) 1536-well black solid bottom assay plate. 200 millimolar (mM) Tris HCl, pH 7.4, 100 micromolar (μM) EDTA and 0.01% TWEEN-20™, final concentration, was used as the assay buffer. The LDHA reagent was 2 nanomolar (nM) Human LDHA (Meridian Life Science, Inc., Memphis, Tenn.), final concentration, in assay buffer. The substrate reagent was 0.06 mM NADH and 0.2 mM sodium pyruvate, final concentration, in assay buffer. The resazurin/diaphorase coupling reagent was 0.037 mM resazurin and 0.133 milligrams per milliliter (mg/mL) diaphorase, final concentration, in assay buffer. The inhibition of LDHA activity was measured by fluorescence emission.

Structures are written as SMILES.

The values that follow come from patent publication US10954228B2 (NATIONAL INSTITUTES OF HEALTH, UNITED STATES DEPARTMENT OF …, priority 2016, dated 2021).

`NS(=O)(=O)c1ccc(Cc2c(-c3cccc(C#Cc4ccc(C5CCC5)s4)c3)nn(-c3nc(C(=O)O)cs3)c2CCC2CC2)cc1F` [Compound 246, 2-(3-(3-((5-cyclobutylthiophen-2-yl)ethynyl)phenyl)-5-(2-cyclopropylethyl)-4-(3-fluoro-4-sulfamoylbenzyl)-1H-pyrazol-1-yl)thiazole-4-carboxylic acid] gave an IC50 of 100 to 1000 nM.
Regarding `Cc1ccc(C(=O)Cc2cccc(-c3nn(-c4nc(C(=O)O)cs4)c(CC4CC4)c3Cc3ccc(S(N)(=O)=O)c(F)c3)c2)s1` [Compound 242, 2-(5-(cyclopropylmethyl)-4-(3-fluoro-4-sulfamoylbenzyl)-3-(3-(2-(5-methylthiophen-2-yl)-2-oxoethyl)phenyl)-1H-pyrazol-1-yl)thiazole-4-carboxylic acid], the IC50 was less than 100 nM.
In the case of `Cc1ncc(-c2cc(-c3nn(-c4nc(C(=O)O)cs4)c(CC4CC4)c3Cc3ccc(S(N)(=O)=O)c(F)c3)ccc2F)[nH]1` [Compound 161, 2-(5-(cyclopropylmethyl)-3-(4-fluoro-3-(2-methyl-1H-imidazol-5-yl)phenyl)-4-(3-fluoro-4-sulfamoylbenzyl)-1H-pyrazol-1-yl)thiazole-4-carboxylic acid] it was less than 100 nM.
In the case of `CC(C)c1ccc(-c2cccc(-c3nn(-c4nc(C(=O)O)cs4)c(CCC4CC4)c3Cc3ccc(S(N)(=O)=O)c(F)c3)c2)cc1` [Compound 206, 2-(5-(2-cyclopropylethyl)-4-(3-fluoro-4-sulfamoylbenzyl)-3-(4′-isopropyl-[1,1′-biphenyl]-3-yl)-1H-pyrazol-1-yl)thiazole-4-carboxylic acid] it was 100 to 1000 nM; in that of `CC(=O)c1cc(-c2nn(-c3nc(C(=O)O)cs3)c(CC3CC3)c2Cc2ccc(S(N)(=O)=O)c(F)c2)ccc1F` [Compound 140, 2-(3-(3-acetyl-4-fluorophenyl)-5-(cyclopropylmethyl)-4-(3-fluoro-4-sulfamoylbenzyl)-1H-pyrazol-1-yl)thiazole-4-carboxylic acid], less than 100 nM.
`Cc1ccc(C#Cc2cccc(-c3nn(-c4nc(CO)cs4)c(CC4CC4)c3Cc3ccc(S(N)(=O)=O)c(F)c3)c2)s1` [Compound 181, 4-((5-(cyclopropylmethyl)-1-(4-(hydroxymethyl)thiazol-2-yl)-3-(3-((5-methylthiophen-2-yl)ethynyl)phenyl)-1H-pyrazol-4-yl)methyl)-2-fluorobenzenesulfonamide] came in with an IC50 of more than 57000 nM.
In the case of `Cc1ccc(C#Cc2cccc(-c3nn(-c4nc(C(N)=O)cs4)c(CC4CC4)c3Cc3ccc(S(N)(=O)=O)c(F)c3)c2)s1` [Compound 163, 2-(5-(cyclopropylmethyl)-4-(3-fluoro-4-sulfamoylbenzyl)-3-(3-((5-methylthiophen-2-yl)ethynyl)phenyl)-1H-pyrazol-1-yl)thiazole-4-carboxamide] it was 1000 to 57000 nM; in that of `Cc1ccc(C#Cc2cccc(-c3nn(-c4nc(C(=O)O)cs4)c(C(C)C4CC4)c3Cc3ccc([S+](N)(=O)[O-])c(F)c3)c2)s1` (stereo not shown) [Compound 116, 2-(5-(1-cyclopropylethyl)-4-(3-fluoro-4-sulfamoylbenzyl)-3-(3-((5-methylthiophen-2-yl)ethynyl)phenyl)-1H-pyrazol-1-yl)thiazole-4-carboxylic acid], 100 to 1000 nM.
In the case of `CC(C)(C)c1cccc(-c2cc(-c3nn(-c4nc(C(=O)O)cs4)c(CC4CC4)c3Cc3ccc(S(N)(=O)=O)c(F)c3)ccc2F)c1` [Compound 192, 2-(3-(3′-(tert-butyl)-6-fluoro-[1,1′-biphenyl]-3-yl)-5-(cyclopropylmethyl)-4-(3-fluoro-4-sulfamoylbenzyl)-1H-pyrazol-1-yl)thiazole-4-carboxylic acid] it was 100 to 1000 nM; in that of `Cc1ccc(C#Cc2cccc(-c3nn(-c4nc(C(=O)O)cs4)c(C(C4CC4)C4CC4)c3Cc3ccc([S+](N)(=O)[O-])c(F)c3)c2)s1` [Compound 126, 2-(5-(dicyclopropylmethyl)-4-(3-fluoro-4-sulfamoylbenzyl)-3-(3-((5-methylthiophen-2-yl)ethynyl)phenyl)-1H-pyrazol-1-yl) thiazole-4-carboxylic acid], 1000 to 57000 nM.
